Results taken from PMC10608878, “Synthesis and Antiproliferative Activity of 2,6-Disubstituted Imidazo[4,5-b]pyridines Prepared by Suzuki Cross Coupling” (Molecules, 2023).
Structures can show the parent of a compound that is named as a salt.

Key:
Zika virus (ZIKV) = assay: Antiviral CPE assay, ZIKV in VeroE6; type: cell-based; details: Zika virus, Vero C1008; VeroE6 host cells
in vitro [1] = details: African green monkey
yellow fever virus (YFV) = assay: microbe, parasite or virus in culture; type: cell-based; details: Yellow fever virus, Vero C1008, read-out: Antiviral Activity (EC50) YFV VeroE6
[2] = test system: Semliki Forest virus (SFV); assay: Antiviral CPE assay, SFV in VeroE6; type: cell-based; details: Semliki Forest virus, Vero C1008; VeroE6 host cells
Sindbis virus (SINDV) = assay: Antiviral CPE assay, SINDV in VeroE6; type: cell-based; details: Sindbis virus, Vero C1008; VeroE6 host cells
[3] = test system: NCI-H460 lung carcinoma cells; assay: Antiproliferative activity, NCI-H460 cells; type: cell-based, human; details: NCI-H460, 72 h incubation
Method: (§1) All prepared imidazo[4,5-b]pyridines were tested for their antiproliferative activity against the following cancer cell lines: LN-229—glioblastoma, Capan-1—pancreatic adenocarcinoma, HCT-116—colorectal carcinoma, NCI-H460—lung carcinoma, DND-41—acute lymphoblastic leukemia, HL-60—acute myeloid leukemia, K-562—chronic myeloid leukemia, and Z-138—non-Hodgkin lymphoma cancer cells. An overview of the results is presented in Table 2 as IC50 values (50% inhibitory concentration). An established antitumor drug, etoposide (ETO), was included for comparison.
(§2) For proliferation assays, the human cancer cell lines used in this manuscript, namely Capan-1, HCT-116, NCI-H460, LN-229, HL-60, K-562, and Z-138, were acquired from the American Type Culture Collection (ATCC, Manassas, VA, USA), while the DND-41 cell line was purchased from the Deutsche Sammlung von Mikroorganismen und Zellkulturen (DSMZ Leibniz-Institut, Braunschweig, Germany). Culture media were purchased from Gibco (Gibco Life Technologies, Merelbeke, Belgium) and supplemented with 10% fetal bovine serum (HyClone, Cytiva, Marlborough, MA, USA). Adherent cell lines LN-229, HCT-116, NCI-H460, and Capan-1 cells were seeded in 384-well tissue culture plates (Greiner, Kremsmünster, Austria) at a density between 500 and 1500 cells per well (500 cells per well for Capan-1, 1000 cells per well for LN-229 and HCT-116, and 1500 cells per well for NCI-H460). The cells were treated with seven different concentrations of the test compounds in a 5-fold dilution series ranging from 100 to 0.006 µM after overnight incubation. Suspension cell lines HL-60, K-562, Z-138, and DND-41 were seeded at densities ranging from 2500 to 5500 cells per well (2500 cells per well for HL-60, K-562, and Z-138, and 5500 cells per well for DND-41) in 384-well culture plates containing the test compounds at the same concentration points. All conditions were incubated for 72 h before measuring the cell viability by the CellTiter 96® AQueous Non-Radioactive Cell Proliferation Assay (Promega, Madison, WA, USA) according to the manufacturer’s instructions. After 3 h, absorbance of all conditions was measured at 490 nm using a SpectraMax Plus 384 (Molecular Devices, San Jose, CA, USA), and the OD values were used to calculate the 50% inhibitory concentration (IC50). Compounds were tested in two independent experiments.

[4] = test system: Z-138 non-Hodgkin lymphoma cells; assay: Antiproliferative activity, Z-138 cells; type: cell-based, human; details: Z-138, 72 h incubation
Method: as §1, §2

[5] = test system: HCT-116 colorectal carcinoma cells; assay: Antiproliferative activity, HCT-116 cells; type: cell-based, human; details: HCT-116, 72 h incubation
Method: as §1, §2

[6] = test system: K-562 chronic myeloid leukemia cells; assay: Antiproliferative activity, K-562 cells; type: cell-based, human; details: K-562, 72 h incubation
Method: as §1, §2

[7] = test system: LN-229 glioblastoma cells; assay: Antiproliferative activity, LN-229 cells; type: cell-based, human; details: LN-229, 72 h incubation
Method: as §1, §2

[8] = test system: DND-41 acute lymphoblastic leukemia cells; assay: Antiproliferative activity, DND-41 cells; type: cell-based, human; details: DND-41, 72 h incubation
Method: as §1, §2

[9] = test system: Capan-1 pancreatic adenocarcinoma cells; assay: Antiproliferative activity, Capan-1 cells; type: cell-based, human; details: Capan-1, 72 h incubation
Method: as §1, §2

[10] = test system: HL-60 acute myeloid leukemia cells; assay: Antiproliferative activity, HL-60 cells; type: cell-based, human; details: HL-60, 72 h incubation
Method: as §1, §2

[11] = test system: respiratory syncytial virus (RSV) A; assay: Antiviral CPE assay, RSV in Hep-2; type: cell-based; details: human respiratory syncytial virus; Hep-2 host cells
in vitro [12] = details: dog
[13] = test system: human coronavirus HCoV-NL63; assay: Antiviral CPE assay, HCoV-NL63 in Hep3B; type: cell-based; details: Hep3B host cells
[14] = test system: human coronavirus HCoV-OC43; assay: Antiviral CPE assay, HCoV-OC43 in HEL 299; type: cell-based; details: Betacoronavirus 1, OC43; HEL 299 host cells
[15] = test system: influenza A/H3N2 (A/HK/7/87); assay: Antiviral CPE assay, influenza A/H3N2 in MDCK; type: cell-based; details: Influenza A virus, MDCK host cells
[16] = test system: influenza B (B/Ned/537/05); assay: Antiviral CPE assay, influenza B in MDCK; type: cell-based; details: Influenza B virus; MDCK host cells
[17] = test system: human coronavirus HCoV-229E; assay: organism not typed; type: cell-based, human coronavirus 229E; details: HEL 299 host cells; read-out: Antiviral Activity (EC50) HCoV 229E HEL 299
[18] = test system: influenza A/H1N1 (A/Ned/378/05); assay: Antiviral CPE assay, influenza A/H1N1 in MDCK; type: cell-based; details: Influenza A virus, MDCK host cells
[19] = test system: herpes simplex virus-1 (HSV-1 KOS); assay: Antiviral CPE assay, HSV-1 in HEL 299; type: cell-based; details: Human alphaherpesvirus 1; HEL 299 host cells

Row | Compound | IC50 ([3]; Homo sapiens, NCI-H460, 72 h) | IC50 ([4]; Homo sapiens, Z-138, 72 h) | IC50 ([5]; Homo sapiens, HCT-116, 72 h) | IC50 ([6]; Homo sapiens, K562, 72 h) | IC50 ([7]; Homo sapiens, LN-229, 72 h) | IC50 ([8]; Homo sapiens, DND41, 72 h) | IC50 ([9]; Homo sapiens, CAPAN-1, 72 h) | IC50 ([10]; Homo sapiens, HL-60, 72 h) | also measured
1 | CCN(CC)CCCC(C)Nc1ccnc2cc(Cl)ccc12 (stereo not shown) [Chloroquine, chloroquine] |  |  |  |  |  |  |  |  | EC50 (Zika virus (ZIKV)): 13.4 µM; CC50 (in vitro [1]): 55.8 µM; EC50 (yellow fever virus (YFV)): > 100 µM; EC50 [2]: > 100 µM; EC50 (Sindbis virus (SINDV)): 8 µM
2 | c1ccc(-c2cnc3[nH]c(-c4ccccc4)nc3c2)cc1 [Compound 12, 2.6-diphenyl-3H-imidazo[4,5-b]pyridine] | > 100 µM | 30.1 µM | > 100 µM | > 100 µM | > 100 µM | > 100 µM | 35.3 µM | 52.3 µM | 
3 | COc1ccc(-c2cnc3[nH]c(-c4ccccc4)nc3c2)cc1 [Compound 14, 6-(4-methoxyphenyl)-2-phenyl-3H-imidazo [4,5-b]pyridine] | > 100 µM | > 100 µM | > 100 µM | > 100 µM | > 100 µM | > 100 µM | > 100 µM | 69.4 µM | 
4 | O=[N+]([O-])c1ccc(-c2cnc3[nH]c(-c4ccccc4)nc3c2)cc1 [Compound 16, 6-(4-nitrophenyl)-2-phenyl-3H-imidazo[4,5-b]pyridine] | > 100 µM | 65.2 µM | > 100 µM | > 100 µM | > 100 µM | > 100 µM | > 100 µM | 79 µM | 
5 | Nc1ccc(-c2cnc3[nH]c(-c4ccccc4)nc3c2)cc1 [Compound 17, 4-(2-phenyl-3H-imidazo [4,5-b]pyridin-6-yl)aniline] | > 100 µM | 40.9 µM | > 100 µM | 83.2 µM | 73 µM | 76.4 µM |  | 41.5 µM | IC50 [9]: 26.6 µM
6 | Nc1ccc(-c2cnc3[nH]c(-c4ccccc4)nc3c2)cc1 [Compound 18, 4-(2-phenyl-3H-imidazo [4,5-b]pyridin-6-yl)aniline hydrochloride] |  |  |  |  |  |  |  |  | IC50 [3]: > 100 µM; IC50 [4]: 34.8 µM; IC50 [5]: > 100 µM; IC50 [6]: 84.7 µM; IC50 [7]: 63.6 µM; IC50 [8]: 70.9 µM; IC50 [9]: 7.29 µM; IC50 [10]: 46.1 µM
7 | COc1ccc(-c2cnc3c(c2)nc(-c2ccccc2)n3C)cc1 [Compound 20, 6-(4-methoxyphenyl)-3-methyl-2-phenyl-3H-imidazo [4,5-b]pyridine] | > 100 µM | 86 µM | > 100 µM | > 100 µM | > 100 µM | > 100 µM | > 100 µM | 62.5 µM | 
8 | Cn1c(-c2ccccc2)nc2cc(-c3ccc(C#N)cc3)cnc21 [Compound 21, 4-(3-methyl-2-phenyl-3H-imidazo [4,5-b]pyridin-6-yl)benzonitrile] | > 100 µM | 62.8 µM | > 100 µM | > 100 µM | > 100 µM | > 100 µM | > 100 µM | 83.1 µM | 
9 | Cn1c(-c2ccccc2)nc2cc(-c3ccc([N+](=O)[O-])cc3)cnc21 [Compound 23, 3-methyl-6-(4-nitrophenyl)-2-phenyl-3H-imidazo [4,5-b]pyridine] | > 100 µM | 72.9 µM | > 100 µM | > 100 µM | > 100 µM | > 100 µM | > 100 µM | 89.9 µM | 
10 | Cn1c(-c2ccccc2)nc2cc(-c3ccc(N)cc3)cnc21 [Compound 24, 4-(3-methyl-2-phenyl-3H-imidazo [4,5-b]pyridin-6-yl)aniline] | 81.6 µM |  | > 100 µM | 62.2 µM | 55.8 µM | 78.5 µM | 63 µM | 36.2 µM | IC50 [4]: 54.4 µM
11 | Cn1c(-c2ccccc2)nc2cc(-c3ccc(N)cc3)cnc21 [Compound 25, 4-(3-methyl-2-phenyl-3H-imidazo [4,5-b]pyridin-6-yl)aniline hydrochloride] |  |  |  |  |  |  |  |  | IC50 [3]: > 100 µM; IC50 [4]: 25.5 µM; IC50 [5]: 56.2 µM; IC50 [6]: 39 µM; IC50 [7]: 59.1 µM; IC50 [8]: > 100 µM; IC50 [9]: 67.3 µM; IC50 [10]: 23.7 µM
12 | COc1cc([C@@H]2c3cc4c(cc3[C@@H](O[C@@H]3O[C@@H]5CO[C@@H](C)O[C@H]5[C@H](O)[C@H]3O)[C@H]3COC(=O)[C@H]23)OCO4)cc(OC)c1O [ETO, etoposide, reference compound] | 4.6 µM | 0.05 µM | 2.55 µM | 2.35 µM | 1.37 µM | 0.6 µM | 0.1 µM | 0.37 µM | 
13 | COc1c(C)c2c(c(O)c1C/C=C(\C)CCC(=O)O)C(=O)OC2 [Mycoph. acid, mycophenolic acid] |  |  |  |  |  |  |  |  | EC50 (Zika virus (ZIKV)): 25.2 µM; CC50 (in vitro [1]): > 100 µM; EC50 (yellow fever virus (YFV)): 0.6 µM; EC50 [2]: > 100 µM; EC50 [11]: 0.8 µM; EC50 (Sindbis virus (SINDV)): > 100 µM
14 | NC(=O)c1ncn([C@@H]2O[C@H](CO)[C@@H](O)[C@H]2O)n1 [Ribavirin, ribavirin] |  |  |  |  |  |  |  |  | CC50 (in vitro [12]): > 250 µM; EC50 [13]: 45.8 µM; EC50 [14]: 97.6 µM; EC50 [15]: 12.3 µM; EC50 [16]: 5.2 µM; EC50 [17]: 83.3 µM; EC50 [18]: 6.6 µM; EC50 [19]: 217 µM; CC50 (in vitro [1]): > 250 µM; EC50 (yellow fever virus (YFV)): 235 µM; EC50 [11]: 35.7 µM
15 | CC(N)C12CC3CC(CC(C3)C1)C2 (stereo not shown) [Rimantadin, rimantadine] |  |  |  |  |  |  |  |  | CC50 (in vitro [12]): > 100 µM; EC50 [15]: 0.06 µM; EC50 [16]: > 100 µM; EC50 [18]: 0.08 µM
16 | CC(=O)N[C@H]1[C@H]([C@H](O)[C@H](O)CO)OC(C(=O)O)=C[C@@H]1N=C(N)N [Zanamivir, zanamivir] |  |  |  |  |  |  |  |  | CC50 (in vitro [12]): > 100 µM; EC50 [15]: 68.1 µM; EC50 [16]: 0.5 µM; EC50 [18]: 0.3 µM
